The Ki is the dissociation constant of the complex between target and ligand, obtained from inhibition or displacement. High values mean a looser hold on the target, low ones a stronger hold on the target.

SMILES strings stand for the structures.

For experiment [1], the target named is T1, katalytische Domäne der MMP-8 (Homo sapiens, UniProt P22894).
T1 construct: dass wir statt des Gesamtenzyms nur dessen enzymatisch aktive katalytische Domäne in E. coli klonierten; made in house; host or cells: E. coli
T1 sequence (P22894 100-262 limits assumed): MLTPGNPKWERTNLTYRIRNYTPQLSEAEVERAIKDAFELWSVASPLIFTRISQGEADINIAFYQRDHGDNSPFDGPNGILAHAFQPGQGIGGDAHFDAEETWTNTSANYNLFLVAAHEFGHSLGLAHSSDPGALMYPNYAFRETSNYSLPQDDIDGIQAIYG
The experiment can be described thus: Quantitative fluorescence assay for matrix metalloproteinases (cleavage of Mca-Pro-Leu-Gly-Leu-Dpa-Ala-Arg-NH2). The class given is biochemical. The source says:
Die Nutzung der katalytischen Domäne der MMP-8 als weiteres Testenzym wurde deshalb gewählt, weil es eine hohe Stabilität besitzt und darüber hinaus als aktives Enzym vorliegt. Es muß deshalb nicht aktiviert werden, was eine der häufigsten Fehlerursachen darstellt, da die zur Aktivierung genutzten Quecksilberverbindungen häufig mit dem Testsystem bzw. dem Enzym interferieren und dadurch die Messergebnisse verfälschen werden. Die Klonierungsstrategie gestalteten wir so, dass wir statt des Gesamtenzyms nur dessen enzymatisch aktive katalytische Domäne in E. coli klonierten. Mit der konstruierten katalytischen Domäne der MMP-8 erzielten wir ein stabiles, enzymatisch aktives und hochreines Enzym, welches für die Routineuntersuchungen der inhibitorischen Aktivität der synthetisierten Inhibitoren sehr gut geeignet war und die Messergebnisse der einzelnen Messserien miteinander vergleichbar machte. Die Klonierung und Expression der katalytischen Domäne der MMP-8 wurde entsprechend den Angaben von SCHNIERER et al. (Schnierer S, Kleine T, Gote T, Hillemann A, Knäuper V, Tschesche H: The recombinant catalytic domain of human neutrophil collagenase lacks type I collagen substrate specificity. Biochem Biophys Res Comm (1993) vol. 191 No. 2, 319-326) durchgeführt.
(§1) Durch enzymatische Spaltung des synthetischen Substrates Mca-Pro-Leu-Gly-Leu-Dpa-Ala-Arg-NH2 durch die jeweilige Kollagenase, wird die fluoreszente Gruppe Mca ((7-Methoxycoumarin-4-yl)acetyl) vom internen Quencher Dpa ((N-3-(2,4-dinitrophenyl)-L-2,3-diaminopropienyl) getrennt. Dabei erfolgt eine starke Zunahme der Fluoreszenz im Messansatz, die am Fluorimeter quantifiziert werden kann (λex 328 nm, λem 393 nm) und innerhalb der ersten Minuten linear verläuft. Eine gewisse Spezifität des Tests für Matrix-Metalloproteinasen ergibt sich einerseits aus der Aminosäuresequenz -Pro-Leu-Gly-Leu- im Substrat und andererseits durch die gewählten Inkubationsbedingungen. Matrix-Metalloproteinasen spalten das Substrat an der Bindung Gly-Leu. Gemessen wird die proteolytische Restaktivität vorinkubierter Ansätze von Enzym und Inhibitor, wobei die Substrat- und Enzymkonzentration konstant gehalten und die Inhibitorkonzentration variiert wurde. Es wurden für jeden getesteten Inhibitor drei Messreihen mit unterschiedlicher Substratkonzentration aufgenommen. Aus der zeitabhängigen Fluoreszenzzunahme wird die Enzymaktivität in Fluoreszenzeinheiten pro min berechnet. Die Bestimmung der Ki-Werte erfolgte graphisch nach der Methode von DIXON (1953) durch Auftragung der reziproken Reaktionsgeschwindigkeit 1/v (y-Achse) gegen Inhibitorkonzentration (x-Achse).
(§2) 1984 µl Messpuffer (100mM Tris-HCI pH 7,5, 100 mM NaCI, 10 mM CaCl2, 0,05% Brij 35 bzw. 50 mM MES-NaOH, pH 6.0, 10 mM CaCl2, 100 mM NaCI, 0.05% Brij 35 im Fall der KaDo MMP-3) 2 µl Inhibitor, gelöst in DMSO, bzw. DMSO allein (nichtinhibierender Ansatz) 4 µl Enzym • 5 min. Vorinkubation des Enzym-Inhibitor-Gemischs bei Raumtemperatur unter Rühren • Start der Reaktion mit 10 µl Substrat gelöst in DMSO • Aufzeichnung der zeitabhängigen Fluoreszenzzunahme über 2 - 10 min.

Another experiment has as its target T2, MMP-9 (Homo sapiens, UniProt P14780).
T2 construct: Das latente Enzym wird durch 30 - 60 min; Inkubation bei 37°C mit 1/100 Vol. Trypsin (10 mg/ml) aktiviert; from tissue; host or cells: human buffy coat (blood leukocytes)
Described as above. The conditions noted are these: bei 10 µM. It is filed as biochemical. Here is the method:
Native MMP-9 wurde reproduzierbar und in guter Ausbeute und Reinheit aus humanem Buffy Coat gewonnen. Hierzu wird Buffy Coat mit 10% (v/v) Triton X-100 auf eine Endkonzentration von 0,4% gebracht, 30 min. auf Eis geschüttelt und dann 1 Vol. 2-fach Bindungspuffer (40 mM Tris-HCI pH 7,5, 10 mM CaCl2, 1 M NaCI, 0,2% (v/v) Triton X-100) hinzugefügt und weitere 30 min. auf Eis geschüttelt. Die Lösung wird 15 min. bei 16 000 Upm an einem SS-34 Rotor bei 4°C abzentrifugiert und über Glaswolle filtriert. Das Filtrat wird mit Gelatine-Agarose, welche mit Bindungspuffer äquilibriert wurde, gebatcht und 1 Std. auf Eis geschüttelt. Die beladene Gelatine-Agarose wird in eine Säule überführt und mit mindestens 10 Vol. Bindungspuffer proteinfrei gespült. Die Elution der gebundenen MMP-9 erfolgt mit 2 Gelvolumen Bindungspuffer plus 5% (v/v) DMSO. Das Eluat kann zum Puffer-Austausch und gleichzeitiger Abtrennung geringer Verunreinigungen an MMP-2 über eine Gelfiltration an Sephadex G-75 aufgetrennt werden. Hierzu wird der Puffer I (20 mM Tris-HCI pH 7,5, 5 mM CaCl2, 100 mM NaCI, 0,1% (v/v) Triton X-100) verwendet. Das so gewonnene Eluat enthällt MMP-9 in den drei bekannten Zustandsformen: Monomer, Homodimer, Heterodimer. Die Reinheit des Enzyms beträgt ca. 90%, wobei die restlichen Fremdproteine Fibronektin und äußerst geringe Mengen an TIMP's sind. Das latente Enzym wird durch 30 - 60 min. Inkubation bei 37°C mit 1/100 Vol. Trypsin (10 mg/ml) aktiviert. Trypsin wird durch Zugabe von 1 mM PMSF oder mit einem spezifischen Inhibitor (TKI) gehemmt.
as §1, §2

T2 sequence (P14780 107-707 limits assumed): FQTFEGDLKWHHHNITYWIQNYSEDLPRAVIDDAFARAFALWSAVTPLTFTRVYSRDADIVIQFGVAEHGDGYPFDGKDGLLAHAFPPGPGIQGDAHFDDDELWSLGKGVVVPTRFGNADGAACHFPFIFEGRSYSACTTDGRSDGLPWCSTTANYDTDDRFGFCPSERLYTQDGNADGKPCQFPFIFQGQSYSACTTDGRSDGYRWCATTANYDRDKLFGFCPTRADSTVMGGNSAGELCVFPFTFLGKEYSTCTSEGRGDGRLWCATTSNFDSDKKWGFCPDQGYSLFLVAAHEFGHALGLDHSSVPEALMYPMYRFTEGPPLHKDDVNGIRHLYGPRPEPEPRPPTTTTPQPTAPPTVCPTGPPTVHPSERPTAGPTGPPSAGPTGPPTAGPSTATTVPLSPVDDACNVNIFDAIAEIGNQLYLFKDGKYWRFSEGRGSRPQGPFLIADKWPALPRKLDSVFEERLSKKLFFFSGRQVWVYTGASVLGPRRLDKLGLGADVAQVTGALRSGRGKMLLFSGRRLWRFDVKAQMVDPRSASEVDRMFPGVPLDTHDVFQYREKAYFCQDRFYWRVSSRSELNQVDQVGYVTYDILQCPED

`Cc1cccc2c(=O)n(CC(S)CS)c(=O)[nH]c12` (racemic) [Beispiel 6, (R,S)-3-(2,3-Dimercaptopropyl)-8-methyl-chinazolin-2,4-(1H,3H)dion]: the “MMP-8 Hemmung” value in experiment [1] (bei 10 µM) was 43% Hemmung bei 10 µM. Also, the “MMP-9 Hemmung” value at MMP-9 is on record as 55% Hemmung bei 10 µM.

In the case of `CC(S)(CS)Cn1c(=O)[nH]c2ccccc2c1=O` (racemic) [Beispiel 2, (R,S)-3-(2,3-Dimercapto-2-methylpropyl)chinazolin-2,4-(1H,3H)dion], the Ki in experiment [1] (Dixon plot) was 60 µM. Moreover, the “MMP-9 Hemmung” value at MMP-9 was 10% Hemmung bei 10 µM.

The values are drawn from patent publication EP1357114A1, “Substituted pyrimidin-2,4(1H,3H)-diones as inhibitors of Matrix Metalloproteinases (MMP)” (IBFB GmbH Privates Institut für biomedizinische Forschung …, priority 2002, dated 2003).
